Measured values: patent US12065436B2, “Cardiac sarcomere inhibitors” (Cytokinetics, Inc., priority 2018, dated 2024)

Target: bovine cardiac myofibrils (full-length cardiac myosin ATPase in the native sarcomere) (Bos taurus (Bovine), UniProt Q9BE39)
Test: Skinned bovine cardiac myofibril ATPase assay (PK/LDH-coupled)
Assay type: biochemical
Details: Ca2+ activating to 75% of maximal rate; for CDMF75 IC15: concentration giving 15% inhibition; for IC50: read-out: CDMF75 IC50
Summary of the method: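 Inhibition of steady-state ATPase read at 340 nm through a PK/LDH-coupled NADH system (0.5 mM NADH, 1.5 mM PEP). Detergent-skinned bovine cardiac myofibrils, 1 mg/mL, were tested at pH 6.8 in PIPES/MgCl2 with 50 μM ATP and calcium adjusted to give pCa50 or pCa75 activation.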

Chain of bovine cardiac myofibrils (full-length cardiac myosin ATPase in the native sarcomere) (Q9BE39 whole entry): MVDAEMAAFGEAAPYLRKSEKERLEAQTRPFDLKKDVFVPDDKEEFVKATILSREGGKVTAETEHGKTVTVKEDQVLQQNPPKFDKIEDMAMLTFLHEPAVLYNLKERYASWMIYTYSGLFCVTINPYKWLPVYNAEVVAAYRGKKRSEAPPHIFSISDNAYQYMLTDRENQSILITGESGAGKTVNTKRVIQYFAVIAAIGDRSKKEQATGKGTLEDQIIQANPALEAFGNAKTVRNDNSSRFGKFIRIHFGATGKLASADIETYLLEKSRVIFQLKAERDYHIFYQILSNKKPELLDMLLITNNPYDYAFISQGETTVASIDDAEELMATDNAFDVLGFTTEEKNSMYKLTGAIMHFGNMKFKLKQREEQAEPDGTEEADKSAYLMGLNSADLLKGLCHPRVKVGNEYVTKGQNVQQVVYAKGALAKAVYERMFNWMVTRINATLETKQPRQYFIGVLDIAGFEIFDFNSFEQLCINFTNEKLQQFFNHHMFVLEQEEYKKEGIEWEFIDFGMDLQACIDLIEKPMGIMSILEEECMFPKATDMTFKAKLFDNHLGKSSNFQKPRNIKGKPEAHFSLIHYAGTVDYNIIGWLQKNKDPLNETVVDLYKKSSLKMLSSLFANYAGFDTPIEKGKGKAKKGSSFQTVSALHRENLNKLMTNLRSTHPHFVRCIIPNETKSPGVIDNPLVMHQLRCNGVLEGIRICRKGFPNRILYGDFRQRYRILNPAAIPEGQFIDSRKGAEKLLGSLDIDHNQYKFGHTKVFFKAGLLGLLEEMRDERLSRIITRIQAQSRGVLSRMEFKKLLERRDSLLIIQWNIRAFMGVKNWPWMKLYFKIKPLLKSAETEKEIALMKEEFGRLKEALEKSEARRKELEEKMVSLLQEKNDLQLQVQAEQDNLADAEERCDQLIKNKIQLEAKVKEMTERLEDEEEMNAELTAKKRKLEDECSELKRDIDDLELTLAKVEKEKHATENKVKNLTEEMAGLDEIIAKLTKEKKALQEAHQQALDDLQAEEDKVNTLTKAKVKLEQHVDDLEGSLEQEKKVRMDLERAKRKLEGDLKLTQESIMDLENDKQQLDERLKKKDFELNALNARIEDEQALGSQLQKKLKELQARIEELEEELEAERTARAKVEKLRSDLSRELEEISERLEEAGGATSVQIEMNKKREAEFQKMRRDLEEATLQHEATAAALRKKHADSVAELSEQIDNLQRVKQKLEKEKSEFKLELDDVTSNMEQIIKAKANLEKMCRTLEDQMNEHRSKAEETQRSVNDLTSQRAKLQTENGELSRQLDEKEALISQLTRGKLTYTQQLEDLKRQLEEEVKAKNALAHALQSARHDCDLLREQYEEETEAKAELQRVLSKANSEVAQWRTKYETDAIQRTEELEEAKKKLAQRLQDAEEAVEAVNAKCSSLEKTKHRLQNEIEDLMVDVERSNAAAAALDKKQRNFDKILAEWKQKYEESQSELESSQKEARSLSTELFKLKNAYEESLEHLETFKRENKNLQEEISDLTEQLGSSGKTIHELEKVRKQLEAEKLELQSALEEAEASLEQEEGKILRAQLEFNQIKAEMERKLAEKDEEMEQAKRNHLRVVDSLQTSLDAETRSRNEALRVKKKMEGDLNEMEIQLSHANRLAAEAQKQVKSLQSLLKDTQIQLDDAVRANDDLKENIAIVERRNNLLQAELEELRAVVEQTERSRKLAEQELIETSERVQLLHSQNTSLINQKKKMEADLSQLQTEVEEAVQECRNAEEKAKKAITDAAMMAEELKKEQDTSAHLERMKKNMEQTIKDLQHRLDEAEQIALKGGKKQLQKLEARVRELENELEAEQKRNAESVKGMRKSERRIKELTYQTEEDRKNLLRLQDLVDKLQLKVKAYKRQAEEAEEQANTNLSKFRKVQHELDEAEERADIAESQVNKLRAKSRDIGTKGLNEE
Chain of bovine cardiac myofibrils (full-length cardiac myosin ATPase in the native sarcomere) (P85100 whole entry partner): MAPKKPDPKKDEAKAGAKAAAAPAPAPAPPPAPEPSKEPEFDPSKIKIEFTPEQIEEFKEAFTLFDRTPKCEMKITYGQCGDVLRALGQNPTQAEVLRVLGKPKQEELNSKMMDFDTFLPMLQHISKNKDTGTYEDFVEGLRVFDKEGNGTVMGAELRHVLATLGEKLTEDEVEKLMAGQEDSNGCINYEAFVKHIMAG
Chain of bovine cardiac myofibrils (full-length cardiac myosin ATPase in the native sarcomere) (Q3SZE5 whole entry partner): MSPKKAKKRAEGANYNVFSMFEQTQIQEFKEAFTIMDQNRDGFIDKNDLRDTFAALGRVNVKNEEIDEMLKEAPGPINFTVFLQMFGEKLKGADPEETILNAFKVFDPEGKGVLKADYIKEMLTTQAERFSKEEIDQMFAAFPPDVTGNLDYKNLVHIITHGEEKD

Structure (SMILES) | CDMF75 IC15 [nM] | IC50 [nM]
CCc1nc(-c2ccc3c(c2)CC[C@H]3NC(=O)c2cnco2)no1 [Compound 584, (R)-N-(5-(5-ethyl-1,2,4-oxadiazol-3-yl)-2,3-dihydro-1H-inden-1-yl)oxazole-5-carboxamide] | 300 | 1200
CCc1nc(-c2ccc3c(c2)CC[C@H]3NC(=O)c2ccon2)no1 [Compound 585, (R)-N-(5-(5-ethyl-1,2,4-oxadiazol-3-yl)-2,3-dihydro-1H-inden-1-yl)isoxazole-3-carboxamide] | 500 | 2500
CCc1nc(-c2ccc3c(c2)CC[C@H]3NC(=O)c2ccon2)no1 [Compound 586, (R)-N-(5-(5-ethyl-1,2,4-oxadiazol-3-yl)-2,3-dihydro-1H-inden-1-yl)isoxazole-3-carboxamide] | 500 | 2300
CCc1nc(-c2ccc3c(c2)CC[C@H]3NC(=O)c2cocn2)no1 [Compound 587, (R)-N-(5-(5-ethyl-1,2,4-oxadiazol-3-yl)-2,3-dihydro-1H-inden-1-yl)oxazole-4-carboxamide] | 2500 | 12900
CCc1nc(-c2cc(Cl)c3c(c2)CC[C@H]3NC(=O)c2cnn(C)c2)no1 [Compound 588, (R)-N-(7-chloro-5-(5-ethyl-1,2,4-oxadiazol-3-yl)-2,3-dihydro-1H-inden-1-yl)-1-methyl-1H-pyrazole-4-carboxamide] | 1200 | 4300
CCc1nc(-c2ccc3c(c2)CC[C@H]3NC(=O)c2csc(C)n2)no1 [Compound 590, (R)-N-(5-(5-ethyl-1,2,4-oxadiazol-3-yl)-2,3-dihydro-1H-inden-1-yl)-2-methylthiazole-4-carboxamide] | 1400 | 6800
CCc1nc(-c2ccc3c(c2)CC[C@H]3NC(=O)Cc2ccccc2)no1 [Compound 591, (R)-N-(5-(5-ethyl-1,2,4-oxadiazol-3-yl)-2,3-dihydro-1H-inden-1-yl)-2-phenylacetamide] | 4400 | 9800
CCc1nc(-c2ccc3c(c2)CC[C@H]3NC(=O)c2ccn(C)n2)no1 [Compound 592, (R)-N-(5-(5-ethyl-1,2,4-oxadiazol-3-yl)-2,3-dihydro-1H-inden-1-yl)-1-methyl-1H-pyrazole-3-carboxamide] | 2700 | 10900
CCc1nc(-c2ccc3c(c2)CC[C@H]3NC(=O)c2ncco2)no1 [Compound 593, (R)-N-(5-(5-ethyl-1,2,4-oxadiazol-3-yl)-2,3-dihydro-1H-inden-1-yl)oxazole-2-carboxamide] | 500 | 2100
CCc1nc(-c2ccc3c(c2)CC[C@H]3NC(=O)c2cccc(C)n2)no1 [Compound 594, (R)-N-(5-(5-ethyl-1,2,4-oxadiazol-3-yl)-2,3-dihydro-1H-inden-1-yl)-6-methylpicolinamide] | 1400 | 5800
CCc1nc(-c2ccc3c(c2)CC[C@H]3NC(=O)c2cnc(C)s2)no1 [Compound 595, (R)-N-(5-(5-ethyl-1,2,4-oxadiazol-3-yl)-2,3-dihydro-1H-inden-1-yl)-2-methylthiazole-5-carboxamide] | 300 | 1000
CCc1nc(-c2ccc3c(c2)CC[C@H]3NC(=O)c2cn(CCOC)nc2C)no1 [Compound 596, (R)-N-(5-(5-ethyl-1,2,4-oxadiazol-3-yl)-2,3-dihydro-1H-inden-1-yl)-1-(2-methoxyethyl)-3-methyl-1H-pyrazole-4-carboxamide] | 800 | 2500
CCc1nc(-c2ccc3c(c2)CC[C@H]3NC(=O)c2cn(CCO)nc2C)no1 [Compound 597, (R)-N-(5-(5-ethyl-1,2,4-oxadiazol-3-yl)-2,3-dihydro-1H-inden-1-yl)-1-(2-hydroxyethyl)-3-methyl-1H-pyrazole-4-carboxamide] | 500 | 1900
CCc1nc(-c2ccc3c(c2)CC[C@H]3NC(=O)c2cnn(CCCOC)c2C)no1 [Compound 598, (R)-N-(5-(5-ethyl-1,2,4-oxadiazol-3-yl)-2,3-dihydro-1H-inden-1-yl)-1-(3-methoxypropyl)-5-methyl-1H-pyrazole-4-carboxamide] | 3900 | 15700
COCCCn1cc(C(=O)N[C@@H]2CCc3cc(-c4noc(C5CC5)n4)ccc32)cn1 [Compound 600, (R)-N-(5-(5-cyclopropyl-1,2,4-oxadiazol-3-yl)-2,3-dihydro-1H-inden-1-yl)-1-(3-methoxypropyl)-1H-pyrazole-4-carboxamide] | 3500 | 16500

Further lines, results first:

CDMF75 IC15 [nM] | IC50 [nM] | Structure (SMILES)
1600 | 7300 | O=C(N[C@@H]1CCc2cc(-c3noc(C4CC4)n3)ccc21)c1cnn(CCCO)c1 [Compound 601, (R)-N-(5-(5-cyclopropyl-1,2,4-oxadiazol-3-yl)-2,3-dihydro-1H-inden-1-yl)-1-(3-hydroxypropyl)-1H-pyrazole-4-carboxamide]
4100 | 16900 | CCc1nc(-c2ccc3c(c2)CC[C@H]3NC(=O)c2ccn(CCOC)n2)no1 [Compound 602, (R)-N-(5-(5-ethyl-1,2,4-oxadiazol-3-yl)-2,3-dihydro-1H-inden-1-yl)-1-(2-methoxyethyl)-1H-pyrazole-3-carboxamide]
300 | 1000 | CCc1nc(-c2ccc3c(c2)CC[C@H]3NC(=O)c2ccc(=O)[nH]c2)no1 [Compound 603, (R)-N-(5-(5-ethyl-1,2,4-oxadiazol-3-yl)-2,3-dihydro-1H-inden-1-yl)-6-oxo-1,6-dihydropyridine-3-carboxamide]
300 | 900 | CCc1nc(-c2ccc3c(c2)CC[C@H]3NC(=O)c2ccc(=O)[nH]c2)no1 [Compound 604, (R)-N-(5-(5-ethyl-1,2,4-oxadiazol-3-yl)-2,3-dihydro-1H-inden-1-yl)-6-oxo-1,6-dihydropyridine-3-carboxamide]
800 | 3400 | CCc1nc(-c2ccc3c(c2)CC[C@H]3NC(=O)c2ccc(=O)n(CCO)c2)no1 [Compound 605, (R)-N-(5-(5-ethyl-1,2,4-oxadiazol-3-yl)-2,3-dihydro-1H-inden-1-yl)-1-(2-hydroxyethyl)-6-oxo-1,6-dihydropyridine-3-carboxamide]
4600 | 22600 | CCc1nc(-c2ccc3c(c2)CC[C@H]3NC(=O)c2ccc(=O)n(CCOC)c2)no1 [Compound 606, (R)-N-(5-(5-ethyl-1,2,4-oxadiazol-3-yl)-2,3-dihydro-1H-inden-1-yl)-1-(2-methoxyethyl)-6-oxo-1,6-dihydropyridine-3-carboxamide]
2900 | 15400 | CCc1nc(-c2ccc3c(c2)CC[C@H]3NC(=O)c2ccnn2CCO)no1 [Compound 607, (R)-N-(5-(5-ethyl-1,2,4-oxadiazol-3-yl)-2,3-dihydro-1H-inden-1-yl)-1-(2-hydroxyethyl)-1H-pyrazole-5-carboxamide]
1200 | 4600 | CCc1nc(-c2ccc3c(c2)CC[C@H]3NC(=O)c2ccn(CCO)n2)no1 [Compound 608, (R)-N-(5-(5-ethyl-1,2,4-oxadiazol-3-yl)-2,3-dihydro-1H-inden-1-yl)-1-(2-hydroxyethyl)-1H-pyrazole-3-carboxamide]
300 | 900 | CCc1nc(-c2cc(O)c3c(c2)CC[C@H]3NC(=O)c2cnn(C)c2)no1 [Compound 609, N-[(1R)-5-(5-ethyl-1,2,4-oxadiazol-3-yl)-7-hydroxy-2,3-dihydro-1H-inden-1-yl]-1-methyl-1H-pyrazole-4-carboxamide]
2000 | 8600 | CCc1nc(-c2ccc3c(c2)CC[C@H]3NC(=O)c2ccnc(C(C)(C)O)c2)no1 [Compound 610, (R)-N-(5-(5-ethyl-1,2,4-oxadiazol-3-yl)-2,3-dihydro-1H-inden-1-yl)-2-(2-hydroxypropan-2-yl)isonicotinamide]
700 | 2500 | CCc1nc(-c2ccc3c(c2)CC[C@H]3NC(=O)c2cnn(CCCO)c2C)no1 [Compound 611, (R)-N-(5-(5-ethyl-1,2,4-oxadiazol-3-yl)-2,3-dihydro-1H-inden-1-yl)-1-(3-hydroxypropyl)-5-methyl-1H-pyrazole-4-carboxamide]
700 | 2100 | CCc1nc(-c2ccc3c(c2)CC[C@H]3NC(=O)c2cn(CCCO)nc2C)no1 [Compound 612, (R)-N-(5-(5-ethyl-1,2,4-oxadiazol-3-yl)-2,3-dihydro-1H-inden-1-yl)-1-(3-hydroxypropyl)-3-methyl-1H-pyrazole-4-carboxamide]
400 | 1400 | CCc1nc(-c2ccc3c(c2)CC[C@H]3NC(=O)c2cnc(CO)n2C)no1 [Compound 613, (R)-N-(5-(5-ethyl-1,2,4-oxadiazol-3-yl)-2,3-dihydro-1H-inden-1-yl)-2-(hydroxymethyl)-1-methyl-1H-imidazole-5-carboxamide]
3400 | 14700 | CCc1nc(-c2ccc3c(c2)CC[C@H]3NC(=O)c2ccc(=O)n(CC(=O)O)c2)no1 [Compound 614, (R)-2-(5-((5-(5-ethyl-1,2,4-oxadiazol-3-yl)-2,3-dihydro-1H-inden-1-yl)carbamoyl)-2-oxopyridin-1(2H)-yl)acetic acid]
400 | 1400 | CCc1nc(-c2ccc3c(c2)CC[C@H]3NC(=O)c2cnon2)no1 [Compound 615, (R)-N-(5-(5-ethyl-1,2,4-oxadiazol-3-yl)-2,3-dihydro-1H-inden-1-yl)-1,2,5-oxadiazole-3-carboxamide]
4500 | 22900 | CCc1nc(-c2ccc3c(c2)CC[C@H]3NC(=O)c2cn(C)nn2)no1 [Compound 616, (R)-N-(5-(5-ethyl-1,2,4-oxadiazol-3-yl)-2,3-dihydro-1H-inden-1-yl)-1-methyl-1H-1,2,3-triazole-4-carboxamide]
